5 compounds from patent US9302998B2, “Aryl triazole compounds with antitumoural activity” (SIGMA-TAU RESEARCH SWITZERLAND S.A., priority 2010, dated 2016) can be followed below.

The structures appear in SMILES notation. Some results are limits rather than exact numbers.

For one test, the target named is T1, Hsp90 (Homo sapiens, UniProt P07900).
T1 construct: purchased Stressgen SPP-776
Nature of the test: Fluorescence Polarization (FP) binding, GM-BODIPY displacement from Hsp90. The conditions noted are these: GM-BODIPY tracer, 4° C. for 4 hours. As to the method:
GM-BODIPY (PerkinElmer, CUSN60342000MG) was previously dissolved in DMSO to obtain 10 mM stock solutions and kept at −20° C. until use.
Hsp90 (Stressgen, SPP-776), was previously dissolved in assay buffer (HFB) to form 2.2 μM stock solutions and kept at −80° C. until use.
The compounds were previously dissolved in DMSO to obtain stock solutions and kept at −20° C. The day of experiment, the compounds were prepared by serial dilutions in assay buffer (HFB) containing 20 mM HEPES (K) pH 7.3, 50 mM KCl, 5 mM MgCl2, 20 mM Na2MoO4 and 0.01% NP40. Before each use, 0.1 mg/ml Bovine Gamma globulin and 2 mM DTT were freshly added.
Fluorescence Polarization (FP) was performed in Opti-Plate™-96F well plates (Perkin Elmer, Zaventem, Belgium) using a plate reader (Wallac Envision 2101 multilabel reader, Perkin Elmer, Zaventem, Belgium). To evaluate the binding affinity of the molecules, 50 μl of the GM-BODIPY solution (100 nM) were added to 125 nM of Hsp90 in the presence of 5 μl of the test compounds at increasing concentrations. The plate was mixed on a shaker at 4° C. for 4 hours, and the FP values in mP (millipolarization units) were recorded. The IC50 values were calculated as the inhibitor concentration where 50% of the tracer is displaced; each data point is the result of the average of triplicate wells, and was determined from a plot using nonlinear least-squares analysis. Curve fitting was performed using
Prism GraphPad software program (GraphPad software, Inc., San Diego, Calif.).
On the technique in general: Fluorescence polarisation rises when a labelled molecule tumbles more slowly, as on binding a larger partner.

The subject of test [1] is NCI-H460 non-small cell lung carcinoma. Nature of the test: Cytotoxicity assay, sulphorodamine B test, NCI-H460. Format: cell-based. The conditions noted are these: Homo sapiens, NCI-H460; 72 h, sulphorodamine B. The method, then: (§1) The antiproliferative activity of novel Hsp90 inhibitors was also evaluated on various cancerous cell lines by means of the sulphorodamine B test (i.e., NCI-H460 non-small cell lung carcinoma, A431 epidermoid, A2780 ovarian, MDA-MB436 triple-negative breast, U87MG glioblastoma, A498 renal, HCT116 colon, MeWo melanoma, MiaPaCa2 pancreas, HeLa cervix uteri, NB4 promyelocytic leukemia). NCI-H460, A431, MDA-MB436, A2780, A498, HeLa, NB4 tumour cells were grown in RPMI 1640 containing 10% fetal bovine serum (i.e., FBS from GIBCO), L-glutamine, and 50 μg/ml gentamycin sulfate.
(§2) All cell lines were maintained in a 37° C. incubator with saturated humidity and an atmosphere containing 95% air and 5% CO2, and were sub-cultured every 2-3 days. Tumour cells were seeded in 96-well tissue culture plates at approximately 10% confluence and were allowed to attach and recover for 24 h.
(§3) Varying concentrations of the drugs were then added to each well to calculate their IC50 value (the concentration which inhibits the 50% of cell survival). The plates were incubated at 37° C. for 72 h. At the end of the treatment, the plates were washed by remotion of the supernatant and addition of PBS 3 times. 200 μl PBS and 50 μl of cold 80% trichloroacetic acid (TCA) were added. The plates were incubated on ice for at least 1 h. TCA was removed, the plates were washed 3 times by immersion in distilled-water and dried on paper and at 40° C. for […]. Then 200 μl of 0.4% sulphorodamine B in 1% acetic acid were added. The plates were incubated at room temperature for 30 min. Sulphorodamine B was removed, the plates were washed by immersion in 1% acetic acid for 3 times, then they were dried on paper and at 40° C. for 5 min. Then, 200 μl Tris 10 mM were added, the plates were kept under stirring for 20 min. The cell survival was determined as optical density by a Multiskan […] at 540 nm. The amount of cells killed was calculated as the percentage decrease in sulphorodamine B binding compared with control cultures.

For another test, the system named is A431 epidermoid. Put plainly: Sulphorodamine B test at single concentration, A431. Type of test: cell-based. The conditions noted are these: Homo sapiens, A-431; 500 nM, 72 h. As to the method: as §1, §2, §3
(§4) The other cell lines were screened against one single concentration of the various inhibitors (i.e., 500 nM), all experiments being made in octuplicate, following the protocol described at example 35. Since NB4 cell line was grown in suspension, a further step of centrifugation (i.e., 1600 g for 10 min) was added after the 72 hour incubation period.

The subject of a further test is A2780 ovarian. Nature of the test: Sulphorodamine B test at single concentration, A2780. Format: cell-based. The conditions noted are these: Homo sapiens, 500 nM, 72 h. The method, then:
as §1, §2, §3, §4

For test [2], the system named is MDA-MB436 triple-negative breast. Put plainly: Sulphorodamine B test at single concentration, MDA-MB436. The conditions noted are these: Homo sapiens, MDA-MB-436; 500 nM, 72 h. Type of test: cell-based. As to the method:
as §1, §2, §3, §4

The test system of another test is U87MG glioblastoma. Nature of the test: Sulphorodamine B test at single concentration, U87MG. Type of test: cell-based. The conditions noted are these: Homo sapiens, U-87 MG; 500 nM, 72 h. The method, then:
as §1
(§5) MeWo and U87-MG cells were cultured in Eagle's Minimum Essential Medium (i.e., EMEM) containing 10% FBS, L-glutamine, 1 mM sodium pyruvate, 0.1 mM non-essential amino acids, 1.5 g/l sodium bicarbonate, and 50 μg/ml gentamycin sulphate.
as §2, §3, §4

The subject of the next test is A498 renal. Put plainly: Sulphorodamine B test at single concentration, A498. The conditions noted are these: Homo sapiens, 500 nM, 72 h. Type of test: cell-based. As to the method:
as §1, §2, §3, §4

In the next test the test system is HCT116 colon. Put plainly: Sulphorodamine B test at single concentration, HCT116. Type of test: cell-based. The conditions noted are these: Homo sapiens, HCT-116; 500 nM, 72 h. As to the method:
as §1
HCT116 cells were cultured in McCoy's medium containing 10% FBS, L-glutamine, and 50 μg/ml gentamycin sulfate.
as §2, §3, §4

Another test has as its system MeWo melanoma. Put plainly: Sulphorodamine B test at single concentration, MeWo. Type of test: cell-based. The conditions noted are these: Homo sapiens, 500 nM, 72 h. The method, then: as §1, §5, §2, §3, §4
In the next test the test system is MiaPaCa2 pancreas. Nature of the test: Sulphorodamine B test at single concentration, MiaPaCa2. Format: cell-based. The conditions noted are these: Homo sapiens, MIA PaCa-2; 500 nM, 72 h. As to the method: as §1
MiaPaCa2 cells were cultured in DMEM medium containing 10% FBS, L-glutamine, and 50 μg/ml gentamycin sulfate.
as §2, §3, §4

For the next test, the system named is HeLa cervix uteri. Put plainly: Sulphorodamine B test at single concentration, HeLa. Type of test: cell-based. The conditions noted are these: Homo sapiens, 500 nM, 72 h. As to the method: as §1, §2, §3, §4
Test [3] has as its system NB4 promyelocytic leukemia. Put plainly: Sulphorodamine B test at single concentration, NB4. Type of test: cell-based. The conditions noted are these: 500 nM, 72 h, suspension cells. As to the method: as §1, §2, §3, §4

As usually defined, the IC50 is the concentration that inhibits the measured activity by half. The low end stands for higher potency, the high end for lower potency. As a reminder, the inhibition is the change of the read-out against control, counted positive when it falls. Low values mean a response near the control, high ones a response far below the control. Regarding `CCNC(=O)c1nnn(-c2cc(C(C)C)c(O)cc2O)c1-c1ccc(CN2CCOCC2)cc1` [Example 5, 1-(2,4-dihydroxy-5-isopropyl-phenyl)-5-(4-morpholin-4-ylmethyl-phenyl)-1H-[1,2,3]triazole-4-carboxylic ethyl amide], the IC50 (at Hsp90; in [1]) was below 50 nM each time. Besides, the inhibition at 0.5 µM (in the test on A431 epidermoid; with A2780 ovarian; in test [2]; with U87MG glioblastoma; with A498 renal; with HCT116 colon) was at least 50% throughout. Besides, the inhibition at 0.5 µM (in the test with MeWo melanoma; in the test with MiaPaCa2 pancreas; in the test on HeLa cervix uteri; in test [3]) was at least 50% throughout.
Regarding `CC(C)c1cc(-n2nnc(C(=O)NC3CCCCC3)c2-c2ccc(CN3CCOCC3)cc2)c(O)cc1O` [Example 29, 1-(2,4-dihydroxy-5-isopropyl-phenyl)-5-(4-morpholin-4-ylmethyl-phenyl)-1H-[1,2,3]triazole-4-carboxylic acid cyclohexylamide], the figures for the half-inhibitory concentration (IC50) (on Hsp90; in [1]) were 50 to 100 nM and below 50 nM, respectively. In addition, the inhibition at 0.5 µM (with A431 epidermoid; in the test on A2780 ovarian; in test [2]; with U87MG glioblastoma; with A498 renal; in the test on HCT116 colon) was at least 50% in each case. Moreover, the inhibition at 0.5 µM (in the test with MeWo melanoma; in the test with MiaPaCa2 pancreas; with HeLa cervix uteri; in test [3]) was at least 50% each time.
For `CCNC(=O)c1nnn(-c2cc(C(C)C)c(O)cc2O)c1-c1ccc(CN2CCCC(O)C2)cc1` (racemic) [Example 6, (R,S)-1-(2,4-dihydroxy-5-isopropyl-phenyl)-5-[4-(3-hydroxy-piperidin-1-ylmethyl)-phenyl]-1H-[1,2,3]triazole-4-carboxylic acid ethylamide], the IC50 was below 50 nM on Hsp90 and 50 to 100 nM in [1]. The inhibition at 0.5 µM (with A431 epidermoid; in the test on A2780 ovarian; in test [2]; with U87MG glioblastoma; with A498 renal; with HCT116 colon) was at least 50% each time. The inhibition at 0.5 µM (in the test on MeWo melanoma; in the test on MiaPaCa2 pancreas; in the test with HeLa cervix uteri; in test [3]) was at least 50% each time.
As to `CC(C)c1cc(-n2nnc(C(=O)NC3CCCC3)c2-c2ccc(CN3CCOCC3)cc2)c(O)cc1O` [Example 28, 1-(2,4-dihydroxy-5-isopropyl-phenyl)-5-(4-morpholin-4-ylmethyl-phenyl)-1H-[1,2,3]triazole-4-carboxylic acid cyclopentylamide], the IC50 (at Hsp90; in [1]) was below 50 nM each time. The inhibition at 0.5 µM (with A431 epidermoid; with A2780 ovarian; in [2]; with U87MG glioblastoma; in the test with A498 renal; with HCT116 colon) was at least 50% in each case. The inhibition at 0.5 µM (in the test on MeWo melanoma; with MiaPaCa2 pancreas; in the test on HeLa cervix uteri; in [3]) was at least 50% throughout.
As to `CCNC(=O)c1nnn(-c2cc(C(C)C)c(O)cc2O)c1-c1ccc(CN2CCN(C)CC2)cc1` [Example 11, 1-(2,4-dihydroxy-5-isopropyl-phenyl)-5-[4-(4-methyl-piperazin-1-ylmethyl)-phenyl]-1H-[1,2,3]triazole-4-carboxylic acid ethylamide], the concentration for half-maximal inhibition (IC50) (at Hsp90; in test [1]) was below 50 nM each time. Moreover, the inhibition at 0.5 µM (with A431 epidermoid; in the test with A2780 ovarian; in test [2]; with U87MG glioblastoma; in the test with A498 renal; in the test with HCT116 colon) was at least 50% in each case. Further, the inhibition at 0.5 µM (in the test on MeWo melanoma; in the test on MiaPaCa2 pancreas; in the test on HeLa cervix uteri; in [3]) was at least 50% throughout.
